From doi:10.1101/2024.07.29.605666v2, “Effects of two different compounds on seizure suppression using the zebrafish PTZ-seizure model” (bioRxiv, 2024) come the findings set out here.

Common to all, as to assay type: in vivo, zebrafish (Danio rerio)
One experiment has as its system casp9. Put plainly: RT-qPCR of casp9 transcript in larval heads after PTZ-induced seizures. The following applies: tripeptide 24 h, then 15 mM PTZ 20 min; significant effects at 10 and 5 μg/mL; n = 5 pools of five heads; vs PTZ group. How it is done:
(§1) For all compounds, zebrafish larvae at 6 days post-fertilization (dpf) were randomly placed into Petri dishes, each one containing 25 larvae. The larvae were incubated in the respective solutions and concentrations for 24h (as specified in Table 1) prior to seizure induction. The temperature and photoperiod conditions were consistent with those described for the adult zebrafish. The study groups consisted of the Control Group (CG), PTZ Group (PTZ), Treatment 1, Treatment 2, and Treatment 3. Treatments 1 to 3 employed the previously determined concentrations mentioned above.
(§2) Seizure induction followed the pretreatment of the compounds. […]
(§3) Immediately after PTZ exposure, fish were cryo-anesthetized and their heads were cut, collected, and then incubated in TRIzol® (Invitrogen, Carlsbad, CA, USA). […] The concentration and quality were determined using the Epoch™ spectrophotometer (BioTek, Winooski, VT, USA) and gel electrophoresis.
(§4) The synthesis of cDNA was carried out using the High-Capacity cDNA Reverse Transcription kit (Applied Biosystems™, Califórnia, USA) following the manufacturer’s instructions. Quantitative PCR (qPCR) was performed using the SYBR ® Green Master Mix reagent (Bio-Rad) using the ABI 7500 system (Applied Biosystems, Foster City, CA, USA). […] Data were evaluated using 7500 software v2.03 (Applied Biosystems). […]
On the technique in general: In qPCR the cycle at which signal appears reflects the starting amount.

The next experiment concerns casp3a. Kind of experiment: RT-qPCR of casp3a transcript in larval heads after PTZ-induced seizures. The following applies: tripeptide 10 μg/mL 24 h, then 15 mM PTZ 20 min; no statistical difference detected; n = 5. As to the method:
as §1, §2, §3, §4

The next experiment deals with zebrafish larvae. Kind of experiment: PTZ-induced seizure behaviour (latency and number of seizures) after 24 h compound pretreatment. The following applies: tripeptide 25, 10 and 5 μg/mL, 24 h pretreatment, then 15 mM PTZ, 10 min visual observation; vs PTZ group. How it is done:
as §1
Seizure induction followed the pretreatment of the compounds. Larvae with 7 dpf were carefully transferred to a 96-well plate filled with 100 μL of aquarium water, with one larva per well. Subsequently, 100 μL of 30 mM of the proconvulsant agent pentylenetetrazol (PTZ) (Sigma-Aldrich, St. Louis, MO, USA) was added to each well, resulting in a final concentration of 15 mM of PTZ. The larvae were exposed to PTZ for 20 minutes. The control group underwent the same procedure but in PTZ-free water.
The latency and number of seizures were monitored through visual observation, following the method described by Barbalho et al., 2016a. […] Larvae were evaluated for 10 minutes of PTZ exposure, and a complete seizure was considered when they reached stage 3.

A further experiment deals with bcl2a. Put plainly: RT-qPCR of bcl2a transcript in larval heads after PTZ-induced seizures. The following applies: tripeptide 10 μg/mL 24 h, then 15 mM PTZ 20 min; no statistical difference detected; n = 5. How it is done:
as §1, §2, §3, §4

For the next experiment, the system named is il1b. Put plainly: RT-qPCR of il1b transcript in larval heads after PTZ-induced seizures. The following applies: tripeptide 24 h, then 15 mM PTZ 20 min; significant effects at 10 and 5 μg/mL; n = 5 pools of five heads; vs PTZ group. How it is done:
as §1, §2, §3, §4

The next experiment has as its system baxa. Put plainly: RT-qPCR of baxa transcript in larval heads after PTZ-induced seizures. The following applies: tripeptide 10 μg/mL 24 h, then 15 mM PTZ 20 min; no statistical difference detected; n = 5. How it is done: as §1, §2, §3, §4

With Glu-Val-Trp [Tripeptide], the “casp9 gene expression (RQ = 2-ΔΔCT)” value in the experiment with casp9 was “downregulation”. Further, the “casp3a gene expression (RQ = 2-ΔΔCT)” value with casp3a is on record as “roughly equivalent to or slightly higher than those of the PTZ group”. Further, in the experiment on zebrafish larvae, the number of seizures result is listed as “No statistical significance was found” and the “seizure latency (time to stage 3 seizure-like activity)” value was “No statistical significance was found”. For the same substance, in the experiment with bcl2a, the “bcl2a gene expression (RQ = 2-ΔΔCT)” value is “roughly equivalent to or slightly higher than those of the PTZ group”. Moreover, the “il1b gene expression (RQ = 2-ΔΔCT)” value with il1b was “downregulation”. Besides, the “baxa gene expression (RQ = 2-ΔΔCT)” value with baxa is reported as “roughly equivalent to or slightly higher than those of the PTZ group”.
